GI50 and IC50 data for 20 compounds are collected here from patent publication US12215100B2, “Anticancer compounds” (Pharma Mar, S.A., priority 2018, dated 2025).

Experiment [1] relates to MDA-MB-231. The experiment can be described thus: SRB colorimetric cytotoxicity assay, MDA-MB-231. Conditions: Homo sapiens, breast adenocarcinoma. The format is cell-based, human. In outline:
(§1)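 Human cancer cells (5×10^3/well; DMEM or RPMI for PSN-1, 10% FBS) attached overnight, then treated 72 h; time-zero plate fixed. Growth measured by SRB staining after glutaraldehyde fixation, absorbance 490 nm. GI50, TGI and LC50 interpolated via NCI algorithm from 4-parameter logistic fits of triplicates.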

In experiment [2] the test system is HT29. The experiment can be described thus: SRB colorimetric cytotoxicity assay, HT29. Conditions: Homo sapiens, colorectal adenocarcinoma. The format is cell-based, human. Put shortly:
as §1

Experiment [3] relates to PSN-1. The experiment can be described thus: SRB colorimetric cytotoxicity assay, PSN-1. The experiment is classed as cell-based, human. Conditions: Homo sapiens, pancreatic adenocarcinoma. Put shortly:
as §1

In experiment [4] the test system is A549. The experiment can be described thus: SRB colorimetric cytotoxicity assay, A549. The format is cell-based, human. Conditions: Homo sapiens, lung carcinoma (NSCLC). In outline: as §1
The subject of experiment [5] is Hep3B. Conditions: liver cancer cell line; WO2002066046; cited from earlier work.
Experiment [6] relates to HepG2. Conditions: liver cancer cell line; WO2002066046; cited from earlier work.
Experiment [7] concerns SNU-216. Conditions: gastric cancer cell line; WO2002066046; cited from earlier work.
In experiment [8] the test system is AGS. Conditions: gastric cancer cell line; WO2002066046; cited from earlier work.
Experiment [9] concerns SK-HEP-1. Conditions: liver cancer cell line; WO2002066046; cited from earlier work.
Experiment [10] relates to SNU-638. Conditions: gastric cancer cell line; WO2002066046; cited from earlier work.
The mark [11] stands for this setting: MDA-MB-231, 72 h, 72 hours treatment.
[12] abbreviates: HT-29, 72 h, 72 hours treatment.

Consider `CCC[C@@H](NC(=O)[C@]1(C)CSC(C(C)(OCC)OCC)=N1)c1cc(OCC)cc(=O)o1` [Compound 46], for which the GI50 in experiment [1] (setting [11]) turned out to be 1520 nM; in experiment [2] (setting [12]), 2180 nM; in [3] (PSN1, 72 h, 72 hours treatment), 4620 nM; in [4] (A549, 72 h, 72 hours treatment), 2420 nM.

On to `CCC[C@@H](NC(=O)[C@]1(C)CSC(/C(C)=N/O)=N1)c1cc(OC)cc(=O)o1` [Compound 1], for which the GI50 amounted to 34.1 nM in [1] (setting [11]); 14.4 nM in experiment [2] (setting [12]); 28.8 nM in [3] (PSN1, 72 h, 72 hours treatment); 11.5 nM in experiment [4] (A549, 72 h, 72 hours treatment).

Regarding `CCC[C@@H](NC(=O)[C@]1(C)CSC(/C(C)=N/OCCCCOP(=O)(O)O)=N1)c1cc(OCC2CC2)cc(=O)o1` [Compound 192], the GI50 in [1] (setting [11]) turned out to be 16.4 nM; in experiment [2] (setting [12]), 7.15 nM; in [3] (PSN1, 72 h, 72 hours treatment) it was 27.9 nM; in experiment [4] (A549, 72 h, 72 hours treatment), 9.07 nM.

Take `C=CCOc1cc([C@@H](CCC)NC(=O)[C@]2(C)CSC(/C(C)=N/O)=N2)oc(=O)c1` [Compound 74]: the GI50 in experiment [1] (setting [11]) turned out to be 4.91 nM; in experiment [2] (setting [12]), 2.94 nM; in experiment [3] (PSN1, 72 h, 72 hours treatment), 3.19 nM; in experiment [4] (A549, 72 h, 72 hours treatment), 4.17 nM.

With `CCC[C@@H](NC(=O)[C@]1(C)CSC(/C(C)=N/O[Si](c2ccccc2)(c2ccccc2)C(C)(C)C)=N1)c1cc(O)cc(=O)o1` [Compound 184], the GI50 turned out to be 4460 nM in experiment [1] (MDA-MB-231, 72 hours treatment); 2970 nM in experiment [2] (HT-29, 72 hours treatment); 4130 nM in [3] (PSN1, 72 hours treatment); 4790 nM in experiment [4] (A549, 72 hours treatment).

On to `C=Cc1cc([C@@H](CCC)NC(=O)[C@]2(C)CSC(/C(C)=N/O)=N2)oc(=O)c1` [Compound 79], for which the GI50 in experiment [1] (setting [11]) was 344 nM; in experiment [2] (setting [12]), 397 nM; in experiment [3] (PSN1, 72 h, 72 hours treatment) it was 477 nM; in experiment [4] (A549, 72 h, 72 hours treatment), 424 nM.

Take `COC1=CC(=O)N(C(=O)[C@H]2CSC([C@H](CO)NC(=O)c3csc(/C=N/O)n3)=N2)C1` [althiomycin]: the IC50 in experiment [5] is 880 nM; in experiment [6], 1430 nM; in [7], 770 nM; in experiment [8], 850 nM; in experiment [9] it was 810 nM; in [10] it was 770 nM.

For the compound `CCC[C@@H](NC(=O)[C@]1(C)CSC(/C(C)=N/O)=N1)c1cc(C)cc(=O)o1` [Compound 78], the GI50 was 43.8 nM in experiment [1] (setting [11]); 43.8 nM in experiment [2] (setting [12]); 32.8 nM in experiment [3] (PSN1, 72 h, 72 hours treatment); 24.9 nM in experiment [4] (A549, 72 h, 72 hours treatment).

On to `C=CCOc1cc([C@@H](CCC)NC(=O)[C@]2(C)CSC(/C(C)=N/O[C@H]3O[C@@H]4COC(C)(C)O[C@H]4[C@@H]4OC(C)(C)O[C@H]34)=N2)oc(=O)c1` [Compound 110], for which the GI50 in [1] (setting [11]) amounted to 78.5 nM; in experiment [2] (setting [12]), 36.9 nM; in experiment [3] (PSN1, 72 h, 72 hours treatment), 56.9 nM; in experiment [4] (A549, 72 h, 72 hours treatment), 43.1 nM.

Regarding `CCCCCCCCCCCCCCCCCOc1cc([C@@H](CCC)NC(=O)[C@]2(C)CSC(C(C)(OCC)OCC)=N2)oc(=O)c1` [Compound 49], the GI50 in experiment [1] (setting [11]) stood at 1500 nM; in [2] (setting [12]) it was 932 nM; in [3] (PSN1, 72 h, 72 hours treatment), 1460 nM; in [4] (A549, 72 h, 72 hours treatment), 1340 nM.

In the case of `C#CCOc1cc([C@@H](CCC)NC(=O)[C@]2(C)CSC(/C(C)=N\O)=N2)oc(=O)c1` [Compound 75a], the GI50 was found to be 2.71 nM in [1] (setting [11]); 1.18 nM in experiment [2] (setting [12]); 2 nM in experiment [3] (PSN1, 72 h, 72 hours treatment); 2.12 nM in experiment [4] (A549, 72 h, 72 hours treatment).

For the compound `CCC[C@@H](NC(=O)[C@]1(C)CSC(/C(C)=N/CCCNC(=O)OC(C)(C)C)=N1)c1cc(OCC2CC2)cc(=O)o1` [Compound 116], the GI50 in [1] (setting [11]) was found to be 195 nM; in experiment [2] (setting [12]), 249 nM; in experiment [3] (PSN1, 72 h, 72 hours treatment), 302 nM; in experiment [4] (A549, 72 h, 72 hours treatment) it was 302 nM.

Regarding `CCC[C@@H](NC(=O)[C@]1(C)CSC(/C(C)=N/OCCCN)=N1)c1cc(OC)cc(=O)o1` [Compound 98], the GI50 in [1] (setting [11]) amounted to 34.2 nM; in experiment [2] (setting [12]) it was 25.1 nM; in experiment [3] (PSN1, 72 h, 72 hours treatment), 27.4 nM; in experiment [4] (A549, 72 h, 72 hours treatment), 22.1 nM.

`CCC[C@@H](NC(=O)[C@]1(C)CSC(C(C)(OCC)OCC)=N1)c1cc(OCC2CC2)cc(=O)o1` [Compound 52]: the GI50 in experiment [1] (setting [11]) stood at 1290 nM; in [2] (setting [12]) it was 1210 nM; in experiment [3] (PSN1, 72 h, 72 hours treatment) it was 1770 nM; in [4] (A549, 72 h, 72 hours treatment) it was 1270 nM.

On to `CCC[C@@H](NC(=O)[C@]1(C)CSC(/C(C)=N/OCCCCO)=N1)c1cc(OC)cc(=O)o1` [Compound 147], for which the GI50 in experiment [1] (setting [11]) worked out at 287 nM; in experiment [2] (setting [12]) it was 137 nM; in experiment [3] (PSN1, 72 h, 72 hours treatment), 243 nM; in experiment [4] (A549, 72 h, 72 hours treatment), 148 nM.

Regarding `CCCCCCCOc1cc([C@@H](CCC)NC(=O)[C@]2(C)CSC(/C(C)=N/O)=N2)oc(=O)c1` [Compound 72], the GI50 in [1] (setting [11]) was determined as 30.1 nM; in experiment [2] (setting [12]), 30.1 nM; in experiment [3] (PSN1, 72 h, 72 hours treatment) it was 21.5 nM; in experiment [4] (A549, 72 h, 72 hours treatment) it was 25.8 nM.

For `C=CCOc1cc([C@@H](CCC)NC(=O)[C@]2(C)CSC(C(C)(OCC)OCC)=N2)oc(=O)c1` [Compound 50], the GI50 came to 536 nM in experiment [1] (setting [11]); 514 nM in experiment [2] (setting [12]); 814 nM in experiment [3] (PSN1, 72 h, 72 hours treatment); 643 nM in [4] (A549, 72 h, 72 hours treatment).

For the compound `CCC[C@@H](NC(=O)[C@]1(C)CSC(/C(C)=N/O[C@H]2O[C@H](CO)[C@@H](O)[C@@H]3OC(C)(C)O[C@H]23)=N1)c1cc(OCC2CC2)cc(=O)o1` [Compound 180], the GI50 in [1] (setting [11]) worked out at 417 nM; in [2] (setting [12]) it was 369 nM; in experiment [3] (PSN1, 72 h, 72 hours treatment), 529 nM; in experiment [4] (A549, 72 h, 72 hours treatment), 593 nM.

As to `CCCCOc1cc([C@@H](CCC)NC(=O)[C@]2(C)CSC(/C(C)=N\O)=N2)oc(=O)c1` [Compound 71a], the GI50 turned out to be 35.4 nM in experiment [1] (setting [11]); 17 nM in experiment [2] (setting [12]); 30.7 nM in experiment [3] (PSN1, 72 h, 72 hours treatment); 16.5 nM in [4] (A549, 72 h, 72 hours treatment).

Turning to `CCC[C@@H](NC(=O)[C@]1(C)CSC(/C(C)=N/OCCCN)=N1)c1cc(OCC2CC2)cc(=O)o1` (stereo in doubt) [Compound 158], the GI50 stood at 12.1 nM in experiment [1] (setting [11]); 6.06 nM in experiment [2] (setting [12]); 6.27 nM in experiment [3] (PSN1, 72 h, 72 hours treatment); 5.43 nM in experiment [4] (A549, 72 h, 72 hours treatment).
